Each block holds one compound with its values, some of them ahead of it.
Key:
[1] = molecular target: T1, mitochondrial pyruvate carrier (MPC) (Homo sapiens, UniProt O95563+Q9Y5U8); test: Bret IC50, inhibitory activity against MPC; assay type: cell-based
T1 sequence (Q9Y5U8 1-109): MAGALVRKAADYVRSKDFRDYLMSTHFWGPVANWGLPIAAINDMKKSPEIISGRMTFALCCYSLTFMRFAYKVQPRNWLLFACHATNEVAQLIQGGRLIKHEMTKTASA
T1 sequence (O95563 1-127): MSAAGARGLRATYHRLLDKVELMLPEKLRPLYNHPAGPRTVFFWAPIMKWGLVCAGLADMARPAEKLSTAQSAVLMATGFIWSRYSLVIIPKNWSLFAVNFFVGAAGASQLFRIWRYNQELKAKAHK
From the text: (§1) The inhibition of mitochondrial pyruvate carrier (MPC) by compounds of the invention have been tested as follows and their inhibitory activity was expressed as IC50s values.
Table 2 below presents the IC50s of the compounds of the invention.

[2] = molecular target: T1, mitochondrial pyruvate carrier (MPC); test: Seahorse Xfe24 pyruvate-dependent OCR in HeLa cells; assay type: cell-based; details: pyruvate-dependent OCR in presence of fCCP
Procedure: as §1
Cells are plated in the customized Seahorse plates. For HeLa cells, seeding is at 4×10^4 cells/well in […] DMEM, 10% FBS, 1% pen/strep/glutamine. 3 wells are left blank (medium alone) for internal calibration. The assay cartridge is hydrated overnight at 37° C. in 1 ml/well XF Calibrant Solution.
Since 50 μl of compound of the invention will be injected into 450 μl washed cells, compounds are made up in assay medium at 10× the final desired concentration
For dose response analyses, compounds are tested at final concentrations 30, 5, 0.83, 0.14, 0.023 μM (1:6 serial dilutions from […])
Positive control: […] (the parent hit compound which gave rise to the actual series)
Negative control: Assay medium alone.
The seahorse reagent plate is prepared as follows and transfered to the Xfe24 analyser for the calibration step:
The medium is almost completely removed from the well without allowing cells to dry Cells are washed twice with 300 μl Assay Medium. 450 μl fresh Assay Medium is added to each well. The plate is transferred to the Xfe24 analyser for measurement of pyruvate-dependent OCR. All values are normalized to the initial basal respiration rate in each well which is measured prior to addition of compounds and designated as 100%. IC50 determination is based on the average of the 3 measurements made in the presence of fCCP, taking 30 μM parent hit compound as maximal inhibition and PBS/Ca/Mg as zero inhibition.

[3] = system: CD8 T cells (OT1 splenocytes); test: In vitro priming of CD8 T cells (OT1 splenocytes), memory marker expression by flow cytometry; assay type: cell-based, mouse; details: day 7, highest doses
Procedure: OT1 splenocytes were cultured for 3 days at a concentration of 10^6 cells per mL in RPMI medium (Gibco 61870-01) supplemented with 10% FBS, (Gibco 10270-106), 1% Penicillin/Streptomycin (Gibco 15070-063), 50 μM ß-mercaptoethanol, 1% HEPES (Gibco 15630-080), 1× Non-essential amino acids (Gibco 11140-035), 1% L-glutamine (Gibco 25030-081), 1 mM Sodium Pyruvate (Gibco 11360-039). Cells were additionally supplemented with hIL-2 100 U/ml (Glaxo-IMB), ovalbumin N4 peptide (257-264) 1 μg/ml (model peptide antigen from ovalbumin) and either different concentrations of Compound 45 or 47 or with their solvent DMSO as a control. At day 3, splenocytes were collected, washed and split, and cells were cultured for 4 additional days with 100 U/ml hIL-2 and hIL-7 (Peprotech 200-07) supplemented either with Compound 45 or 47 or DMSO. At day 7, flow cytometry analyses were performed for surface marker expression.
To evaluate the effects of MPC inhibition on T cell differentiation, OTI splenocytes were cultured in the presence of 1 μg/ml ovalbumin-derived N4 peptide, 100 IU/ml recombinant human IL-2 (rhIL-2) and the MPC inhibitors Compound 45 or 47 or control DMSO for 3 days. The cells were cultured for 4 more days in the presence of 100 IU/ml IL-2 and 10 ng/ml rhIL-7 (FIG. 1A) and the inhibitors or DMSO. When analyzing the surface expression of the central memory marker CD62L (FIG. 1B) and the pro-survival receptor CD127 (FIG. 1C) by flow cytometry on day 7, an increase in cells treated with the highest doses of compounds of the invention was observed compared to DMSO.

Compound: CCCc1cc(=O)[nH]c2nnc(S(=O)(=O)Cc3c(F)cccc3Cl)n12 [Compound 50, 3-[(2-chloro-6-fluorobenzyl)sulfonyl]-5-propyl[1,2,4]triazolo[4,3-a]pyrimidin-7 (8H)-one]
IC50 [1]: 11200 nM

Compound: N#Cc1ccc(CSc2nnc3[nH]c(=O)cc(Cc4ccccc4)n23)cc1 [Compound 46, 4-{[(5-benzyl-7-oxo-7,8-dihydro[1,2,4]triazolo[4,3-a]pyrimidin-3-yl)sulfanyl]methyl}benzonitrile]
IC50 [1]: 4690 nM

Compound: CCCc1cc(=O)[nH]c2nnc(SCc3cc(F)ccc3C)n12 [Compound 12, 3-[(5-fluoro-2-methylbenzyl)sulfanyl]-5-propyl[1,2,4]triazolo[4,3-a]pyrimidin-7 (8H)-one]
IC50 [1]: 561 nM
IC50 [2]: 158 nM

Compound: CCCc1cc(=O)[nH]c2nnc(CCc3ccccc3)n12 [Compound 51, 3-(2-phenylethyl)-5-propyl[1,2,4]triazolo[4,3-a]pyrimidin-7 (8H)-one]
IC50 [1]: 3650 nM

Compound: CCCc1cc(=O)[nH]c2nnc(SCc3cccc(C#N)c3)n12 [Compound 7, 3-{[(7-oxo-5-propyl-7,8-dihydro[1,2,4]triazolo[4,3-a]pyrimidin-3-yl)sulfanyl]methyl}benzonitrile]
IC50 [1]: 10200 nM

Compound: COCc1cc(=O)[nH]c2nnc(SCc3cc(F)ccc3F)n12 [Compound 31, 3-[(2,5-difluorobenzyl)sulfanyl]-5-(methoxymethyl) [1,2,4]triazolo[4,3-a]pyrimidin-7 (8H)-one]
IC50 [1]: 5660 nM

Compound: CCCc1cc(=O)[nH]c2nnc(SCc3cccc4ccccc34)n12 [Compound 90, 3-[(naphthalen-1-ylmethyl)sulfanyl]-5-propyl[1,2,4]triazolo[4,3-a]pyrimidin-7 (8H)-one]
IC50 [1]: 2500 nM

Compound: Cc1cc(=O)[nH]c2nnc(SCc3cc(F)ccc3F)n12 [Compound 29, 3-[(2,5-difluorobenzyl)sulfanyl]-5-methyl[1,2,4]triazolo[4,3-a]pyrimidin-7 (8H)-one]
IC50 [1]: 5810 nM

Compound: CC(C)Cc1cc(=O)[nH]c2nnc(SCc3c(F)cccc3Cl)n12 [Compound 40, 3-[(2-chloro-6-fluorobenzyl)sulfanyl]-5-(2-methylpropyl) [1,2,4]triazolo[4,3-a]pyrimidin-7 (8H)-one]
IC50 [1]: 391 nM
IC50 [2]: 218 nM

Compound: CCCc1cc(=O)[nH]c2nnc(SCc3ccc(C#N)cc3)n12 [Compound 18, 4-{[(7-oxo-5-propyl-7,8-dihydro[1,2,4]triazolo[4,3-a]pyrimidin-3-yl)sulfanyl]methyl}benzonitrile]
IC50 [1]: 4210 nM

Compound: CCCc1cc(=O)[nH]c2nnc(Sc3ccccc3)n12 [Compound 47, 3-(phenylsulfanyl)-5-propyl[1,2,4]triazolo[4,3-a]pyrimidin-7 (8H)-one]
IC50 [1]: 167 nM
cells positive for central memory marker CD62L ([3]; vs DMSO (FIG. 1B)): increase
cells positive for pro-survival receptor CD127 ([3]; vs DMSO (FIG. 1C)): increase
IC50 [2]: 184 nM

Compound: CCCc1cc(=O)[nH]c2nnc(SCCc3ccccc3)n12 [Compound 14, 3-[(2-phenylethyl)sulfanyl]-5-propyl[1,2,4]triazolo[4,3-a]pyrimidin-7 (8H)-one]
IC50 [1]: 1750 nM

Compound: CCCc1cc(=O)[nH]c2nnc(SCc3c(C)cccc3C)n12 [Compound 25, 3-[(2,6-dimethylbenzyl)sulfanyl]-5-propyl[1,2,4]triazolo[4,3-a]pyrimidin-7 (8H)-one]
IC50 [1]: 593 nM
IC50 [2]: 171 nM

Compound: CCCc1cc(=O)[nH]c2nnc(SCc3ccoc3)n12 [Compound 15, 3-[(furan-3-ylmethyl)sulfanyl]-5-propyl[1,2,4]triazolo[4,3-a]pyrimidin-7 (8H)-one]
IC50 [1]: 2090 nM

More lines, in order of falling IC50 [1], values ahead:

IC50 [1]: 12500 nM
Compound: Cc1cc(=O)[nH]c2nnc(SCc3ccc(Cl)cc3)n12 [Compound 85, 3-[(4-chlorobenzyl)sulfanyl]-5-methyl[1,2,4]triazolo[4,3-a]pyrimidin-7 (8H)-one]

IC50 [1]: 5390 nM
Compound: CCCc1cc(=O)[nH]c2nnc(SCc3cc(F)ccc3C#N)n12 [Compound 8, 4-fluoro-2-{[(7-oxo-5-propyl-7,8-dihydro[1,2,4]triazolo[4,3-a]pyrimidin-3-yl)sulfanyl]methyl}benzonitrile]

IC50 [1]: 3480 nM
Compound: CCCc1cc(=O)[nH]c2nnc(SCc3ccc4occc4c3)n12 [Compound 19, 3-[(1-benzofuran-5-ylmethyl)sulfanyl]-5-propyl[1,2,4]triazolo[4,3-a]pyrimidin-7 (8H)-one]

IC50 [1]: 2200 nM
Compound: CCCc1cc(=O)[nH]c2nnc(SCc3cc(F)cc(F)c3)n12 [Compound 3, 3-[(3,5-difluorobenzyl)sulfanyl]-5-propyl[1,2,4]triazolo[4,3-a]pyrimidin-7 (8H)-one]

IC50 [1]: 2030 nM
Compound: CCCc1cc(=O)[nH]c2nnc(SCc3cccc(OC)c3)n12 [Compound 17, 3-[(3-methoxybenzyl)sulfanyl]-5-propyl[1,2,4]triazolo[4,3-a]pyrimidin-7 (8H)-one]

IC50 [1]: 1320 nM
IC50 [2]: 1040 nM
Compound: O=c1cc(CCOCc2ccccc2Cl)n2c(SCc3cc(F)ccc3F)nnc2[nH]1 [Compound 33, 5-{2-[(2-chlorobenzyl)oxy]ethyl}-3-[(2,5-difluorobenzyl)sulfanyl][1,2,4]triazolo[4,3-a]pyrimidin-7 (8H)-one]

IC50 [1]: 943 nM
IC50 [2]: 1650 nM
Compound: O=c1cc(CCOCc2ccccc2)n2c(SCc3cc(F)ccc3F)nnc2[nH]1 [Compound 30, 5-[2-(benzyloxy)ethyl]-3-[(2,5-difluorobenzyl)sulfanyl][1,2,4]triazolo[4,3-a]pyrimidin-7 (8H)-one]

IC50 [1]: 878 nM
IC50 [2]: 185 nM
Compound: CCCc1cc(=O)[nH]c2nnc(SCc3cc(F)ccc3OC)n12 [Compound 9, 3-[(5-fluoro-2-methoxybenzyl)sulfanyl]-5-propyl[1,2,4]triazolo[4,3-a]pyrimidin-7 (8H)-one]

IC50 [1]: 873 nM
Compound: CCCc1c(C)c(=O)[nH]c2nnc(SCc3c(F)cccc3Cl)n12 [Compound 48, 3-[(2-chloro-6-fluorobenzyl)sulfanyl]-6-methyl-5-propyl[1,2,4]triazolo[4,3-a]pyrimidin-7 (8H)-one]

IC50 [1]: 814 nM
IC50 [2]: 289 nM
Compound: O=c1cc(CCOCc2ccccc2)n2c(SCc3c(F)cccc3Cl)n[nH]c2n1 [Compound 43, 5-[2-(benzyloxy)ethyl]-3-[(2-chloro-6-fluorobenzyl)sulfanyl][1,2,4]triazolo[4,3-a]pyrimidin-7 (1H)-one]

IC50 [1]: 593 nM
Compound: O=c1cc(C2CC2)n2c(SCc3c(F)cccc3Cl)nnc2[nH]1 [Compound 39, 3-[(2-chloro-6-fluorobenzyl)sulfanyl]-5-cyclopropyl[1,2,4]triazolo[4,3-a]pyrimidin-7 (8H)-one]

IC50 [1]: 129 nM
Compound: O=c1cc(CC2CC2)n2c(SCc3c(F)cccc3Cl)nnc2[nH]1 [Compound 41, 3-[(2-chloro-6-fluorobenzyl)sulfanyl]-5-(cyclopropylmethyl) [1,2,4]triazolo[4,3-a]pyrimidin-7 (8H)-one]
